The test addresses T1, hMC2 receptor (crude hMC2R membranes from CRE-bla-CHO-K1 cells stably expressing hMC2 receptor and hMRAP accessory protein) (Homo sapiens, UniProt Q01718).
T1 construct: crude membrane fractions
The test is described as follows: hMC2 membrane binding assay ([125I]ACTH (1-39) Tyr23, SPA). The following applies: displacement of 0.2 nM [125I]ACTH (1-39) Tyr23 from hMC2R membranes, 1.5 hours at room temperature; read-out: MC2R binding potency. In short, it runs like this:
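Crude membranes from CRE-bla-CHO-K1 cells stably co-expressing hMC2R and hMRAP, premixed with WGA PVT SPA beads in pH 7.4 HEPES buffer (5 mM MgCl2, 1 mM CaCl2, 0.20% BSA, protease inhibitors). Compounds compete with [125I]ACTH(1-39) Tyr23, read by scintillation. Ki from non-linear regression.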
T1 sequence (Q01718 whole entry): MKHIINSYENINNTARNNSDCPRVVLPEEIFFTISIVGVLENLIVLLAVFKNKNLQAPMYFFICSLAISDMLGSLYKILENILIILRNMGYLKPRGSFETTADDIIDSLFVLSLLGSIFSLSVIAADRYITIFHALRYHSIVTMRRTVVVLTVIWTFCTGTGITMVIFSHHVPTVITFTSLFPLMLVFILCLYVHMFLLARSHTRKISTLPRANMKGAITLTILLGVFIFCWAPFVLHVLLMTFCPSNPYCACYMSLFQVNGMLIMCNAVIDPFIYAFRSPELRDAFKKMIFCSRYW
T1 sequence (Q8TCY5 whole entry partner): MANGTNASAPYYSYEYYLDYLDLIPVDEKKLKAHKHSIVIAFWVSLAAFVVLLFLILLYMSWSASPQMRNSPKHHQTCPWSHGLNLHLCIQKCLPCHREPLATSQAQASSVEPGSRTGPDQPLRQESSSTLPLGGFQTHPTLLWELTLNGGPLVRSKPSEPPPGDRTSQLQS
For `CCOc1ncccc1-c1ccc(C2(NC(=O)[C@@H]3CCCN3C)CCN(c3ccc(C(F)(F)F)cc3C#N)CC2)cc1` [Compound 2-11, (2S)—N-{1-[2-cyano-4-(trifluoromethyl)phenyl]-4-[4-(2-ethoxypyridin-3-yl)phenyl]piperidin-4-yl}-1-methylpyrrolidine-2-carboxamide], the Ki is 10 to 100 nM. Take `COc1ncccc1-c1ccc(C2(C(=O)N[C@H]3CCN(C)C3)CCN(c3ccc(C(F)(F)F)cc3Cl)CC2)cn1` [Compound 1-142, 1-[2-chloro-4-(trifluoromethyl)phenyl]-4-{2′-methoxy-[2,3′-bipyridin]-5-yl}-N-[(3S)-1-methylpyrrolidin-3-yl]piperidine-4-carboxamide]: the Ki was under 10 nM. Next, `COc1ccccc1-c1ncc(C2(NC(=O)CCN(C)C)CCN(c3ccc(C(F)(F)F)cc3C#N)CC2)cc1F` [Compound 2-62, N-{1-[2-cyano-4-(trifluoromethyl)phenyl]-4-[5-fluoro-6-(2-methoxyphenyl)pyridin-3-yl]piperidin-4-yl}-3-(dimethylamino)propanamide]: under 10 nM; `CCOc1ccccc1-c1ccc(C2(C(=O)NCCNC)CCN(c3ccc(C(F)(F)F)cc3Cl)CC2)cn1` [Compound 1-230, 1-[2-chloro-4-(trifluoromethyl)phenyl]-4-[6-(2-ethoxyphenyl)pyridin-3-yl]-N-[2-(methylamino)ethyl]piperidine-4-carboxamide]: under 10 nM. The result for `CNCCNC(=O)C1(c2ccc(-c3ccccc3OC)nc2)CCN(c2ccc(C(F)(F)F)cc2F)CC1` [Compound 1-256, 1-[2-fluoro-4-(trifluoromethyl)phenyl]-4-[6-(2-methoxyphenyl)pyridin-3-yl]-N-[2-(methylamino)ethyl]piperidine-4-carboxamide] reads under 10 nM; that for `COCc1ccccc1-c1ccc(C2(C(=O)N[C@@H]3CCN(C)C3)CCN(c3ccc(C(F)(F)F)cc3C#N)CC2)cn1` [Compound 1-79, 1-[2-cyano-4-(trifluoromethyl)phenyl]-4-{6-[2-(methoxymethyl)phenyl]pyridin-3-yl}-N-[(3R)-1-methylpyrrolidin-3-yl]piperidine-4-carboxamide], under 10 nM. In the case of `CN1CC[C@@H](NC(=O)C2(c3ccc(-c4ccccc4F)nc3)CCN(c3ccc(C(F)(F)F)cc3C#N)CC2)C1` [Compound 1-74, 1-[2-cyano-4-(trifluoromethyl)phenyl]-4-[6-(2-fluorophenyl)pyridin-3-yl]-N-[(3R)-1-methylpyrrolidin-3-yl]piperidine-4-carboxamide], the Ki was under 10 nM. For `CCOc1ncccc1-c1ccc(C2(NC(=O)N[C@H]3CCN(C)C3)CCN(c3ccc(C(F)(F)F)cc3C#N)CC2)cn1` [Compound 2-20, 1-{1-[2-cyano-4-(trifluoromethyl)phenyl]-4-{2′-ethoxy-[2,3′-bipyridin]-5-yl}piperidin-4-yl}-3-[(3S)-1-methylpyrrolidin-3-yl]urea], the Ki was under 10 nM. The result for `CN1CC[C@@H](NC(=O)C2(c3ccc(-c4cccc5c4OCC5)nc3)CCN(c3ccc(C(F)(F)F)cc3C#N)CC2)C1` [Compound 1-53, 1-[2-cyano-4-(trifluoromethyl)phenyl]-4-[6-(2,3-dihydro-1-benzofuran-7-yl)pyridin-3-yl]-N-[(3R)-1-methylpyrrolidin-3-yl]piperidine-4-carboxamide] reads 10 to 100 nM; that for `CCOc1ncccc1-c1ccc(C2(C(=O)NCCNC)CCN(c3ccc(C(F)(F)F)cc3C#N)CC2)cn1` [Compound 1-14, 1-[2-cyano-4-(trifluoromethyl)phenyl]-4-{2′-ethoxy-[2,3′-bipyridin]-5-yl}-N-[2-(methylamino)ethyl]piperidine-4-carboxamide], under 10 nM; that for `CCOc1ncccc1-c1ccc(C2(C(=O)NC[C@H](C)N)CCN(c3ccc(C(F)(F)F)cc3C#N)CC2)cn1` [Compound 1-16, N-[(2S)-2-aminopropyl]-1-[2-cyano-4-(trifluoromethyl)phenyl]-4-{2′-ethoxy-[2,3′-bipyridin]-5-yl}piperidine-4-carboxamide], under 10 nM.

As to `CNCCC(=O)NC1(c2cnc(-c3ccccc3OC)c(F)c2)CCN(c2ccc(C(F)(F)F)cc2C#N)CC1` [Compound 2-63, N-{1-[2-cyano-4-(trifluoromethyl)phenyl]-4-[5-fluoro-6-(2-methoxyphenyl)pyridin-3-yl]piperidin-4-yl}-3-(methylamino)propanamide], the Ki was under 10 nM. For the compound `COc1ccccc1-c1ccc(C2(C(=O)NC[C@@H]3C[C@H](F)CN3C)CCN(c3ccc(C(F)(F)F)cc3C#N)CC2)cn1` [Compound 1-249, 1-[2-cyano-4-(trifluoromethyl)phenyl]-N-{[(2S,4S)-4-fluoro-1-methylpyrrolidin-2-yl]methyl}-4-[6-(2-methoxyphenyl)pyridin-3-yl]piperidine-4-carboxamide], the Ki is under 10 nM. As to `COc1ccccc1-c1ccc(C2(NC(=O)NCCN(C)C)CCN(c3ccc(C(F)(F)F)cc3C#N)CC2)cn1` [Compound 2-58, 1-{1-[2-cyano-4-(trifluoromethyl)phenyl]-4-[6-(2-methoxyphenyl)pyridin-3-yl]piperidin-4-yl}-3-[2-(dimethylamino)ethyl]urea], the Ki was under 10 nM. For “1-{1-[2-cyano-4-(trifluoromethyl)phenyl]-4-[6-(1-methyl-1H-pyrrol-2-yl)pyridin-3-yl]piperidin-4-yl}-3-[(3R)-1-methylpyrrolidin-3-yl]urea [Compound 2-48]”, the Ki was under 10 nM. Regarding `CNCCNC(=O)C1(c2cnc(-c3ccccc3OC)c(F)c2)CCN(c2ccc(C(F)(F)F)cc2F)CC1` [Compound 1-293, 1-[2-fluoro-4-(trifluoromethyl)phenyl]-4-[5-fluoro-6-(2-methoxyphenyl)pyridin-3-yl]-N-[2-(methylamino)ethyl]piperidine-4-carboxamide], the Ki was under 10 nM. Next, `CCOc1ncccc1-c1ccc(C2(NC(=O)CN(C)C)CCN(c3ccc(C(F)(F)F)cc3C#N)CC2)cn1` [Compound 2-26, N-{1-[2-cyano-4-(trifluoromethyl)phenyl]-4-{2′-ethoxy-[2,3′-bipyridin]-5-yl}piperidin-4-yl}-2-(dimethylamino)acetamide]: under 10 nM.

On to `CCOc1ccccc1-c1ccc(C2(NC(=O)CN(C)C)CCN(c3ccc(C(F)(F)F)cc3C#N)CC2)cn1` [Compound 2-34, N-{1-[2-cyano-4-(trifluoromethyl)phenyl]-4-[6-(2-ethoxyphenyl)pyridin-3-yl]piperidin-4-yl}-2-(dimethylamino)acetamide], for which the Ki is under 10 nM. Next, `CCOc1ccccc1-c1ccc(C2(NC(=O)CCN(C)C)CCN(c3ccc(C(F)(F)F)cc3C#N)CC2)cn1` [Compound 2-36, N-{1-[2-cyano-4-(trifluoromethyl)phenyl]-4-[6-(2-ethoxyphenyl)pyridin-3-yl]piperidin-4-yl}-3-(dimethylamino)propanamide]: under 10 nM. The result for `CCOc1ncccc1-c1ccc(C2(C(=O)NCCN)CCN(c3ccc(C(F)(F)F)cc3C#N)CC2)cc1` [Compound 1-3, N-(2-aminoethyl)-1-[2-cyano-4-(trifluoromethyl)phenyl]-4-[4-(2-ethoxypyridin-3-yl)phenyl]piperidine-4-carboxamide] reads 10 to 100 nM; that for `CN1CC[C@@H](NC(=O)C2(c3ccc(-c4ccccc4C(C)(F)F)nc3)CCN(c3ccc(C(F)(F)F)cc3C#N)CC2)C1` [Compound 1-84, 1-[2-cyano-4-(trifluoromethyl)phenyl]-4-{6-[2-(1,1-difluoroethyl)phenyl]pyridin-3-yl}-N-[(3R)-1-methylpyrrolidin-3-yl]piperidine-4-carboxamide], 10 to 100 nM; that for `COc1ncccc1-c1ncc(C2(C(=O)N[C@@H]3CCN(C)C3)CCN(c3ccc(C(F)(F)F)cc3C#N)CC2)cc1F` [Compound 1-131, 1-[2-cyano-4-(trifluoromethyl)phenyl]-4-{3-fluoro-2′-methoxy-[2,3′-bipyridin]-5-yl}-N-[(3R)-1-methylpyrrolidin-3-yl]piperidine-4-carboxamide], under 10 nM. Next, `CCOc1ccccc1-c1ncc(C2(C(=O)N[C@H]3CCN(C)C3)CCN(c3ccc(C(F)(F)F)cc3C#N)CC2)cc1F` [Compound 1-124, 1-[2-cyano-4-(trifluoromethyl)phenyl]-4-[6-(2-ethoxyphenyl)-5-fluoropyridin-3-yl]-N-[(3S)-1-methylpyrrolidin-3-yl]piperidine-4-carboxamide]: under 10 nM; `CCOc1ccccc1-c1ccc(C2(C(=O)NC3CN(C)C3)CCN(c3ccc(Cl)cc3C#N)CC2)nn1` [Compound 1-135, 1-(4-chloro-2-cyanophenyl)-4-[6-(2-ethoxyphenyl)pyridazin-3-yl]-N-(1-methylazetidin-3-yl)piperidine-4-carboxamide]: under 10 nM.

(Values after patent US12492181B2, “Gem-disubstituted piperidine melanocortin subtype-2 receptor (MC2R) antagonists and uses thereof” (Crinetics Pharmaceuticals, Inc., priority 2019, dated 2025).)
